Measured values: ChEMBL document CHEMBL1129601, “Inhibitors of acyl-CoA: cholesterol O-acyl transferase (ACAT) as hypocholesterolemic agents. CI-1011: an acyl sulfamate with unique cholesterol-lowering activity in animals fed noncholesterol-supplemented diets” (J Med Chem, 1996)
Where “and” joins values, the source holds several entries; their conditions need not be identical. Identical values can stand only once.

What was measured:
Rattus norvegicus [1] = test: Evaluated for %change in cholesterol fed rats for HDL-C at the dose of 0.03 mg/kg determined by Chronic screen test; format: functional
Rattus norvegicus [2] = test: Evaluated for %change in Normal, Chow fed rats for total cholesterol plasma level in rats at the dose of 30 mg/kg; format: functional
Rattus norvegicus [3] = test: Evaluated for %change in cholesterol fed rats for HDL-C at the dose of 10 mg/kg determined by Chronic screen test; format: functional
Rattus norvegicus [4] = test: Effect on the Cholesterol fed rats for total cholesterol level in rats at the dose of 3 mg/kg by Chroinc screen test; format: functional
Rattus norvegicus [5] = test: Evaluated for %change in cholesterol fed rats for non-HDL-C at the dose of 0.1 mg/kg determined by Chronic screen test; format: functional
Rattus norvegicus [6] = test: Evaluated for %change in cholesterol fed rats for total cholesterol at the dose of 0.001 mg/kg determined by Chronic screen test; format: functional
Rattus norvegicus [7] = test: Effect on the Cholesterol fed rats for non-HDL-C in rats at the dose of 0.03 mg/kg by Chroinc screen test; format: functional; also: unit not given here
Rattus norvegicus [8] = test: Evaluated for %change in cholesterol fed rats for HDL-C at the dose of 0.001 mg/kg determined by Chronic screen test; format: functional
Rattus norvegicus [9] = test: Evaluated for %change in Normal, Chow fed rats for total cholesterol plasma level in rats at the dose of 10 mg/kg; format: functional
Rattus norvegicus [10] = test: Evaluated for %change in cholesterol fed rats for non-HDL-C at the dose of 3 mg/kg determined by Chronic screen test; format: functional
Rattus norvegicus [11] = test: Evaluated for %change in cholesterol fed rats for non-HDL-C at the dose of 0.001 mg/kg determined by Chronic screen test; format: functional
Oryctolagus cuniculus [12] = test: Effect on Rabbits (Fed a Cholesterol-Free Casein Diet ) for plasma cholesterol at the dose of 10 mg/kg (pretreatment); format: functional, organism-based; set-up: dose 10 mg/kg
Rattus norvegicus [13] = test: Effect on the Normal, Chow fed rats for total cholesterol plasma level in rats at the dose of 3 mg/kg; format: functional, organism-based; set-up: dose 3 mg/kg
Rattus norvegicus [14] = test: Evaluated for %change in cholesterol fed rats for non-HDL-C at the dose of 0.3 mg/kg determined by Chronic screen test; format: functional
Oryctolagus cuniculus [15] = test: Effect on Rabbits (Fed a Cholesterol-Free Casein Diet ) for plasma cholesterol at the dose of 1 mg/kg (post treatment); format: functional, organism-based; set-up: dose 1 mg/kg
Rattus norvegicus [16] = test: Effect on the Cholesterol fed rats for HDL-C in rats at the dose of 0.01 mg/kg by Chroinc screen test; format: functional
Rattus norvegicus [17] = test: Effect on the plasma cholesterol level in rats at the dose of 3 mg/kg by Acute screen test; format: functional, organism-based; set-up: dose 3 mg/kg
Rattus norvegicus [18] = test: Evaluated for %change in cholesterol fed rats for non-HDL-C at the dose of 1 mg/kg determined by Chronic screen test; format: functional
Rattus norvegicus [19] = test: Evaluated for %change in cholesterol fed rats for HDL-C at the dose of 3 mg/kg determined by Chronic screen test; format: functional
Rattus norvegicus [20] = test: Evaluated for %change in Normal, Chow fed for rats Plasma total triglyceride plasma level in rats at the dose of 3 mg/kg; format: functional
Rattus norvegicus [21] = test: Effect on the Normal, Chow fed rats for Plasma total triglyceride level in rats at the dose of 10 mg/kg; format: functional, organism-based; set-up: dose 10 mg/kg
Rattus norvegicus [22] = test: Evaluated for %change in cholesterol fed rats for non-HDL-C at the dose of 10 mg/kg determined by Chronic screen test; format: functional
Rattus norvegicus [23] = test: Effect on the Normal, Chow fed rats for total cholesterol plasma level in rats at the dose of 30 mg/kg; format: functional, organism-based; set-up: dose 30 mg/kg
Rattus norvegicus [24] = test: Evaluated for %change in cholesterol fed rats for total cholesterol at the dose of 0.01 mg/kg determined by Chronic screen test; format: functional
Rattus norvegicus [25] = test: Effect on the Cholesterol fed rats for total cholesterol level in rats at the dose of 0.1 mg/kg by Chroinc screen test; format: functional; also: unit not given here

CC(C)c1cc(C(C)C)c(CC(=O)NS(=O)(=O)Oc2c(C(C)C)cccc2C(C)C)c(C(C)C)c1 [AVASIMIBE] gave a Change (Rattus norvegicus [1]) of -12%, a Change (Rattus norvegicus [2]) of -30% and a Change (Rattus norvegicus [3]) of 155%. For the same molecule, the TC (Rattus norvegicus [4]) was 92, the Change (Rattus norvegicus [5]) was -45% and -41% and the Change (Rattus norvegicus [6]) was 3%. It also gave a Non-HDL-C (Rattus norvegicus [7]) of 320, a Change (Rattus norvegicus [8]) of -3% and a Change (Rattus norvegicus [9]) of -25%. The Change (Rattus norvegicus [10]) was -72%, the Change (Rattus norvegicus [11]) was 3% and the Plasma cholesterol (Oryctolagus cuniculus [12]) was 209 mg/dL. It also gave a Plasma TC (Rattus norvegicus [13]) of 49 mg/dL, a Change (Rattus norvegicus [14]) of -66% and a Plasma cholesterol (Oryctolagus cuniculus [15]) of 184 mg/dL. The HDL-C (Rattus norvegicus [16]) was 15, the Plasma cholesterol (Rattus norvegicus [17]) was 66 mg/dL and the Change (Rattus norvegicus [18]) was -70%. The Change (Rattus norvegicus [19]) was 140%, the Change (Rattus norvegicus [20]) was -44% and the Plasma TG (Rattus norvegicus [21]) was 75 mg/dL. The Change (Rattus norvegicus [22]) was -84%, the Plasma TC (Rattus norvegicus [23]) was 41 mg/dL and the Change (Rattus norvegicus [24]) was 16%. The TC (Rattus norvegicus [25]) was 131 and 323.
